Results on eight compounds are retold here after ChEMBL document CHEMBL1134501, “Structure-activity studies for a novel series of bicyclic substituted hexahydrobenz[e]isoindole alpha1A adrenoceptor antagonists as potential agents for the symptomatic treatment of benign prostatic hyperplasia” (J Med Chem, 2001).

Assay [1] has as its target T1, Alpha-1D adrenergic receptor (Rattus norvegicus, UniProt P23944).
T1 sequence (P23944 whole entry): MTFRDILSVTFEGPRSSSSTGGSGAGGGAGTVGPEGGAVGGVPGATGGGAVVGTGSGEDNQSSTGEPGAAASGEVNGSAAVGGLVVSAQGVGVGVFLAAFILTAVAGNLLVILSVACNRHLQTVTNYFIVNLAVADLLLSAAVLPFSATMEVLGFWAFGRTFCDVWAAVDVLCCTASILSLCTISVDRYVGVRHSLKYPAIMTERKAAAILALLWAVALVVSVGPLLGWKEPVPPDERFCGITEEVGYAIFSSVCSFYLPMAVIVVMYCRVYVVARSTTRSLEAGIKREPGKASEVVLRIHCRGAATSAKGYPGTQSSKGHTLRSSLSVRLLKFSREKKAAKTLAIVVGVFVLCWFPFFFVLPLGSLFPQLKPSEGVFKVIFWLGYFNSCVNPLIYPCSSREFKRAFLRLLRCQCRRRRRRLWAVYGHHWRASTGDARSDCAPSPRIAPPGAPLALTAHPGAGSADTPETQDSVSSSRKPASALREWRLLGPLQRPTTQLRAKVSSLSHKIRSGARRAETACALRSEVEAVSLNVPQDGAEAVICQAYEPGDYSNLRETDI
The assay can be described thus: Binding affinity to rat alpha-1D adrenergic receptor expressed in LTK cells. The class given is cell-based.

In assay [2] the target is T2, Alpha-1B adrenergic receptor (Rattus norvegicus, UniProt P15823).
T2 sequence (P15823 whole entry): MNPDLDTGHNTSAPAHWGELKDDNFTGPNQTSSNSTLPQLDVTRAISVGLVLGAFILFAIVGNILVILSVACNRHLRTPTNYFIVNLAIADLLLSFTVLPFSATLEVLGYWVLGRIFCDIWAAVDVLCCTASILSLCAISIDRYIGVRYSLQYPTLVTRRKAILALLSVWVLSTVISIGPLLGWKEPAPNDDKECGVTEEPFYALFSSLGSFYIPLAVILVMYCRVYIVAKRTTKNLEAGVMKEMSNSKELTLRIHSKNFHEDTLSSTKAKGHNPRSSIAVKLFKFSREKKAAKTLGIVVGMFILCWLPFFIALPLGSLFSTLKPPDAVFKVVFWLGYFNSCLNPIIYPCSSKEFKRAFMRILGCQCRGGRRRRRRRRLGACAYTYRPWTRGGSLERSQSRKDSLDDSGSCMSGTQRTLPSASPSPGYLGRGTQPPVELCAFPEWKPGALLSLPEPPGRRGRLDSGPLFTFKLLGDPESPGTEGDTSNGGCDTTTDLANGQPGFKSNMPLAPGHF
The assay can be described thus: In vitro antagonistic activity against alpha-1B receptor in rat spleen. The class given is functional, tissue-based. As to conditions: read-out: pA2 (converted).

Another assay deals with Canis familiaris. The assay can be described thus: In vivo antagonist dissociation constant in intaraurethral pressure model in dogs. The note with it: Canis lupus familiaris, read-out: pA2 (converted).
A further assay is filed under the species Rattus norvegicus. The assay can be described thus: Antagonistic activity in spontaneously hypertensive rat model. The class given is functional.
Assay [3] deals with T3, Alpha-1A adrenergic receptor (Rattus norvegicus, UniProt P43140).
T3 sequence (P43140 whole entry): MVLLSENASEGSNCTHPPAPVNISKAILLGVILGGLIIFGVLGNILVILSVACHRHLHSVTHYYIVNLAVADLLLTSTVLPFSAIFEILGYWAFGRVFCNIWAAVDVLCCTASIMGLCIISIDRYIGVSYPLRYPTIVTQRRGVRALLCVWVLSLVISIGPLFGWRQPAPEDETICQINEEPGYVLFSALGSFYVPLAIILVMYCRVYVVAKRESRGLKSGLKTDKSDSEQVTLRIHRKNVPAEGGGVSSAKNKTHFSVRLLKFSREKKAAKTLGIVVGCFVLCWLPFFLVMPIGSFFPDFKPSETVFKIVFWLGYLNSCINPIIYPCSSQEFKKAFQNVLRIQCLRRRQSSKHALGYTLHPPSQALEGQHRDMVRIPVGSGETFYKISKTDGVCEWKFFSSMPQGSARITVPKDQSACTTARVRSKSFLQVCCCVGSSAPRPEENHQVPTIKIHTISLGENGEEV
The assay can be described thus: Binding affinity to alpha-1A adrenergic receptor in rat submaxillary gland. The format is tissue-based.

The target of assay [4] is T3, Alpha-1A adrenergic receptor. The assay can be described thus: In vitro antagonistic activity towards alpha-1A adrenergic receptor in rat vas deferens. The format is functional, tissue-based. As to conditions: read-out: pA2 (converted).
For another assay, the species on record is Cricetulus griseus. The assay can be described thus: Selectivity ratio (alpha-1B/alpha-1A) of the compound.
Assay [5] is described as follows: Selectivity ratio (antolog[pA2rat vas deferens/pA2 rat spleen]) of the compound. The class given is functional.
The target of assay [6] is Alpha-1A adrenergic receptor (Canis familiaris). The assay can be described thus: In vitro antagonistic activity against alpha-1A receptor in dog prostate. As to conditions: read-out: pA2 (converted).

As for `COc1cc2ncn(CCN3C[C@@H]4CCc5c(OC)cccc5[C@@H]4C3)c(=O)c2cc1OC`, in assay [1], the Ki – broadly, the dissociation constant of the complex between target and ligand, obtained from inhibition or displacement – was 7.79 nM. For the same compound, the Kb is 85.1 nM in [2] and 5.01 nM in the assay with Canis familiaris. The compound further returned a pED50 in the assay filed under Rattus norvegicus of 5.32.

Regarding `COc1cccc2c1CC[C@H]1CN(CCn3c(=O)[nH]c4cc(C#N)ccc4c3=O)C[C@@H]21`, the Ki was 0.77 nM in assay [1] and 0.09 nM in assay [3]. Further, the Kb is 18.6 nM in [2], 1.48 nM in [4] and 0.148 nM in [6]. Moreover, the Ratio in the assay filed under Cricetulus griseus came out at 17.3; in [5] it was 12.59.

`COc1cc2nc(N(C)CCCNC(=O)C3CCCO3)nc(N)c2cc1OC` (stereo not given) [ALFUZOSIN]: the Kb in assay [2] is 4.9 nM; in the assay on Canis familiaris, 135 nM.

Turning to `COc1cccc2c1CC[C@H]1CN(CCn3c(=O)[nH]c4c(OC)c(OC)ccc4c3=O)C[C@@H]21`, the values for the inhibition constant (Ki) in assay [1] and in [3] were 0.68 nM and 0.04 nM, respectively. The Ratio in the assay filed under Cricetulus griseus worked out at 16.5; in [5], 5.62.

With `CCOc1ccccc1OCCN[C@H](C)Cc1ccc(OC)c(S(N)(=O)=O)c1` [TAMSULOSIN], in the assay on Canis familiaris, the Kb was 1.35 nM.

For `COc1cc2nc(N3CCN(C(=O)C4CCCO4)CC3)nc(N)c2cc1OC` (stereo not given) [TERAZOSIN], the Kb in the assay on Canis familiaris is 95.5 nM.

As for `COc1cccc2c1CC[C@H]1CN(CCn3c(=O)[nH]c4c(OC)cccc4c3=O)C[C@@H]21`, the inhibitory constant (Ki) in assay [1] is 1.15 nM; in assay [3] it was 0.85 nM. In addition, the Ratio in the assay listed under Cricetulus griseus amounted to 2.67.

As to `COc1cccc2c1CC[C@H]1CN(CCn3c(=O)[nH]c4c(C)c(OC)sc4c3=O)C[C@@H]21`, the figures for the Ki in assay [1] and in assay [3] were 1.45 nM and 1.09 nM, respectively. Besides, in the assay filed under Cricetulus griseus, the Ratio came to 6.5.
